{"source": "patent US10493070B2", "about": "(priority 2016, dated 2019)"}
{"tested_on": "recombinant NL4-3 virus (NLRluc, Renilla luciferase in nef, Gag P373S)", "assay": "HIV cell culture assay (Renilla luciferase reporter virus in MT-2 cells)", "format": "cell-based", "details": "Renilla, NL43, read-out: 10% FBS EC50, 10% FBS, class symbols A/B/C", "summary_of_the_method": "(§1)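 MT-2 cells infected with NL4-3 reporter virus (Renilla luciferase replacing part of nef, Gag P373S), made by 293T transfection and titered in MT-2 cells by luciferase. Infection runs 4–5 days with serial inhibitor dilutions. Antiviral activity read as Renilla luciferase activity (Dual Luciferase reagents).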", "units": {"EC50": "nM"}}
{"smiles": "CC1(C)C(c2ccc(C(=O)O)cc2)=CC[C@]2(C)CN(C(=O)c3nc4ccccc4[nH]3)CC=C12", "note": "[Example A66]", "EC50": "> 3000"}
{"smiles": "CC1(C)C(c2ccc(C(=O)O)cc2)=CC[C@]2(C)CN(C(=O)[C@H]3C[C@@H]4C=C[C@H]3C4)CC=C12", "note": "[Example A86]", "EC50": "> 3000"}
{"smiles": "CC1(C)C(c2ccc(C(=O)O)cc2)=CC[C@]2(C)CN(C(=O)C3(c4ccc(F)cc4)CCCC3)CC=C12", "note": "[Example A111]", "EC50": "> 3000"}
{"smiles": "CC(C)(C)OC(=O)N1CCCCC1CCC(=O)N1CCC(C(=O)N2CC=C3C(C)(C)C(c4ccc(C(=O)O)cc4)=CC[C@]3(C)C2)(c2ccccc2)CC1", "note": "(stereo partly shown) [Example A168]", "EC50": "< 500"}
{"smiles": "CC(C)S(=O)(=O)N1CCC(C(=O)N2CC=C3C(C)(C)C(c4ccc(C(=O)O)cc4)=CC[C@]3(C)C2)(c2ccccc2)CC1", "note": "[Example A195]", "EC50": "< 500"}
{"smiles": "Cc1cc2nc(-c3ccccc3C(=O)N3CC=C4C(C)(C)C(c5ccc(C(=O)O)cc5)=CC[C@]4(C)C3)[nH]c2cc1Cl", "note": "[Example A254]", "EC50": "< 500"}
{"smiles": "CC1(C)C(c2ccc(C(=O)O)cc2)=CC[C@]2(C)CN(C(=O)c3ccccc3-c3nc4cc(Cl)c(Cl)cc4[nH]3)CC=C12", "note": "[Example A265]", "EC50": "< 500"}
{"smiles": "CC1(C)C(c2ccc(C(=O)O)cc2)=CC[C@]2(C)CN(C(=O)c3ccccc3-c3nc4c(F)cccc4[nH]3)CC=C12", "note": "[Example A266]", "EC50": "< 500"}
{"smiles": "CC1(C)C(c2ccc(C(=O)O)cc2)=CC[C@]2(C)CN(C(=O)c3ccccc3-c3nc4cc(F)c(F)cc4[nH]3)CC=C12", "note": "[Example A267]", "EC50": "500 to 3000"}
{"smiles": "Cc1cc(Cl)cc2[nH]c(-c3ccccc3C(=O)N3CC=C4C(C)(C)C(c5ccc(C(=O)O)cc5)=CC[C@]4(C)C3)nc12", "note": "[Example A271]", "EC50": "< 500"}
{"smiles": "CC1(C)C(c2ccc(C(=O)O)cc2)=CC[C@]2(C)CN(C(=O)c3ccccc3-c3nc4c([N+](=O)[O-])cccc4[nH]3)CC=C12", "note": "[Example A272]", "EC50": "< 500"}
{"smiles": "Cn1c(-c2ccccc2C(=O)N2CC=C3C(C)(C)C(c4ccc(C(=O)O)cc4)=CC[C@]3(C)C2)nc2ccccc21", "note": "[Example A274]", "EC50": "> 3000"}
{"smiles": "CCn1c(-c2ccccc2C(=O)N2CC=C3C(C)(C)C(c4ccc(C(=O)O)cc4)=CC[C@]3(C)C2)nc2cc(S(C)(=O)=O)ccc21", "note": "[Example A286]", "EC50": "> 3000"}
{"smiles": "CC1(C)C(c2ccc(C(=O)O)cc2)=CC[C@]2(C)CN(C(=O)c3ccccc3-c3nc4cc(C(=O)O)ccc4n3Cc3ccccc3)CC=C12", "note": "[Example A290]", "EC50": "> 3000"}
{"smiles": "CC1(C)C(c2ccc(C(=O)O)cc2)=CC[C@]2(C)CN(C(=O)c3ccccc3-c3nc4cc(C(=O)O)ccc4n3Cc3cccnc3)CC=C12", "note": "[Example A293]", "EC50": "> 3000"}
{"smiles": "CC(=O)NCCn1c(-c2ccccc2C(=O)N2CC=C3C(C)(C)C(c4ccc(C(=O)O)cc4)=CC[C@]3(C)C2)nc2cc(C(=O)O)ccc21", "note": "[Example A294]", "EC50": "> 3000"}
{"smiles": "COCCn1c(-c2ccccc2C(=O)N2CC=C3C(C)(C)C(c4ccc(C(=O)O)cc4)=CC[C@]3(C)C2)nc2cc(C(=O)O)ccc21", "note": "[Example A296]", "EC50": "> 3000"}
{"smiles": "COc1ccc(OC)c2[nH]c(-c3ccccc3C(=O)N3CC=C4C(C)(C)C(c5ccc(C(=O)O)cc5)=CC[C@]4(C)C3)nc12", "note": "[Example A299]", "EC50": "< 500"}
{"smiles": "CC1(C)C(c2ccc(C(=O)O)cc2)=CC[C@]2(C)CN(C(=O)c3ccccc3-c3nc4ccc(F)c(F)c4o3)CC=C12", "note": "[Example A314]", "EC50": "500 to 3000"}
{"smiles": "CC1(C)C(c2ccc(C(=O)O)cc2)=CC[C@]2(C)CN(C(=O)c3ccccc3-c3nc4ccc(Cl)cc4o3)CC=C12", "note": "[Example A318]", "EC50": "< 500"}
{"smiles": "CC1(C)C(c2ccc(C(=O)O)cc2)=CC[C@@]2(C)CN(C(=O)c3ccccc3-c3nc4c(ccc5ccccc54)o3)CC=C12", "note": "[Example A324]", "EC50": "< 500"}
{"smiles": "CC1(C)C(c2ccc(C(=O)O)cc2)=CC[C@]2(C)CN(C(=O)c3ccccc3-c3nc4cc(Cl)ccc4o3)CC=C12", "note": "[Example A332]", "EC50": "< 500"}
{"smiles": "COc1ccc2nc(-c3ccccc3C(=O)N3CC=C4C(C)(C)C(c5ccc(C(=O)O)cc5)=CC[C@]4(C)C3)oc2c1", "note": "[Example A334]", "EC50": "< 500"}
{"smiles": "CC1(C)C(c2ccc(C(=O)O)cc2)=CC[C@]2(C)CN(C(=O)c3ccccc3-c3nc4cc(F)c(F)cc4o3)CC=C12", "note": "[Example A338]", "EC50": "500 to 3000"}
{"tested_on": "recombinant NL4-3 virus (NLRluc, Renilla luciferase in nef, Gag P373S)", "assay": "HIV cell culture assay (Renilla luciferase reporter virus in MT-2 cells)", "format": "cell-based", "details": "Renilla, NL43, read-out: 10% FBS EC50, 10% FBS, numeric values", "summary_of_the_method": "as §1", "units": {"EC50": "nM"}}
{"smiles": "CCOc1cccc2cc(C(=O)N3CC=C4C(C)(C)C(c5ccc(C(=O)O)cc5)=CC[C@]4(C)C3)oc12", "note": "[Example A46]", "EC50": 1320}
{"smiles": "CC1(C)C(c2ccc(C(=O)O)cc2)=CC[C@]2(C)CN(C(=O)c3ccccc3-n3cccn3)CC=C12", "note": "[Example A58]", "EC50": 1850}
{"smiles": "CC1(C)C(c2ccc(C(=O)O)cc2)=CC[C@]2(C)CN(C(=O)c3ccccc3-c3ccc(C#N)cc3)CC=C12", "note": "[Example A71]", "EC50": 1300}
{"smiles": "Cn1nc(-c2ccccc2)c(C(=O)N2CC=C3C(C)(C)C(c4ccc(C(=O)O)cc4)=CC[C@]3(C)C2)c1Cl", "note": "[Example A79]", "EC50": 870}
{"smiles": "CC1(C)C(c2ccc(C(=O)O)cc2)=CC[C@]2(C)CN(C(=O)c3c(-c4ccccc4)nc4ccccn34)CC=C12", "note": "[Example A91]", "EC50": 711}
{"smiles": "CC1(C)C(c2ccc(C(=O)O)cc2)=CC[C@]2(C)CN(C(=O)c3[nH]c4ccccc4c3-c3ccccc3)CC=C12", "note": "[Example A112]", "EC50": 1100}
{"smiles": "CC1(C)C(c2ccc(C(=O)O)cc2)=CC[C@]2(C)CN(C(=O)c3ccccc3-c3nc4ccccc4[nH]3)CC=C12", "note": "[Example A114]", "EC50": 52}
{"smiles": "C[C@@H](OC(C)(C)C)[C@H](NC(=O)OC(C)(C)C)C(=O)N1CCC(C(=O)N2CC=C3C(C)(C)C(c4ccc(C(=O)O)cc4)=CC[C@]3(C)C2)(c2ccccc2)CC1", "note": "[Example A185]", "EC50": 123}
{"smiles": "CC1(C)C(c2ccc(C(=O)O)cc2)=CC[C@]2(C)CN(C(=O)C3(c4ccccc4)CCN(S(=O)(=O)CCCCl)CC3)CC=C12", "note": "[Example A197]", "EC50": 147}
{"smiles": "CC(C)(C)OC(=O)N1CSC[C@@H]1C(=O)N1CCC(C(=O)N2CC=C3C(C)(C)C(c4ccc(C(=O)O)cc4)=CC[C@]3(C)C2)(c2ccccc2)CC1", "note": "[Example A204]", "EC50": 309}
{"smiles": "CC(C)(C)OC(=O)N[C@H](C(=O)N1CCC(C(=O)N2CC=C3C(C)(C)C(c4ccc(C(=O)O)cc4)=CC[C@]3(C)C2)(c2ccccc2)CC1)C(C)(C)C", "note": "[Example A219]", "EC50": 150}
{"smiles": "CC1(C)C(c2ccc(C(=O)O)cc2)=CC[C@]2(C)CN(C(=O)c3ccccc3-c3nc4cc(F)c(Cl)cc4[nH]3)CC=C12", "note": "[Example A260]", "EC50": 298}
{"smiles": "CC1(C)C(c2ccc(C(=O)O)cc2)=CC[C@]2(C)CN(C(=O)c3ccccc3-c3nc4c(Cl)cc(Cl)cc4[nH]3)CC=C12", "note": "[Example A268]", "EC50": 14}
{"smiles": "CC1(C)C(c2ccc(C(=O)O)cc2)=CC[C@]2(C)CN(C(=O)c3ccccc3-c3nc4c(Cl)cccc4[nH]3)CC=C12", "note": "[Example A270]", "EC50": 14}
{"smiles": "CC1(C)C(c2ccc(C(=O)O)cc2)=CC[C@]2(C)CN(C(=O)c3ccccc3-c3nc4cc([N+](=O)[O-])ccc4[nH]3)CC=C12", "note": "[Example A273]", "EC50": 63}
{"smiles": "CC1(C)C(c2ccc(C(=O)O)cc2)=CC[C@]2(C)CN(C(=O)c3ccccc3-c3nc4ccccc4n3CC34CCN(CC3)CC4)CC=C12", "note": "[Example A275]", "EC50": 1700}
{"smiles": "CC1(C)C(c2ccc(C(=O)O)cc2)=CC[C@]2(C)CN(C(=O)c3ccccc3-c3nc4cc(Cl)c(Cl)cc4n3CCc3ccccc3)CC=C12", "note": "[Example A277]", "EC50": 2250}
{"smiles": "Cc1ncc(C)n2nc(-c3ccc4c(c3)nc(-c3ccccc3C(=O)N3CC=C5C(C)(C)C(c6ccc(C(=O)O)cc6)=CC[C@]5(C)C3)n4C)nc12", "note": "[Example A278]", "EC50": 4960}
{"smiles": "CC1(C)C(c2ccc(C(=O)O)cc2)=CC[C@]2(C)CN(C(=O)c3ccccc3-c3nc4ccccc4n3-c3ccccc3)CC=C12", "note": "[Example A279]", "EC50": 390}
{"smiles": "CC1(C)C(c2ccc(C(=O)O)cc2)=CC[C@]2(C)CN(C(=O)c3ccccc3-c3nc4ccccc4n3C3CCN(Cc4ccccc4)CC3)CC=C12", "note": "[Example A280]", "EC50": 550}
{"smiles": "CC1(C)C(c2ccc(C(=O)O)cc2)=CC[C@]2(C)CN(C(=O)c3ccccc3-c3nc4cc(C(=O)c5ccccc5)ccc4[nH]3)CC=C12", "note": "[Example A281]", "EC50": 950}
{"smiles": "CC(C)(C)OC(=O)NCCn1c(-c2ccccc2C(=O)N2CC=C3C(C)(C)C(c4ccc(C(=O)O)cc4)=CC[C@]3(C)C2)nc2cc(C(F)(F)F)ccc21", "note": "[Example A283]", "EC50": 1370}
{"smiles": "CC1(C)C(c2ccc(C(=O)O)cc2)=CC[C@]2(C)CN(C(=O)c3ccccc3-c3nc4cc5c(cc4[nH]3)OCO5)CC=C12", "note": "[Example A298]", "EC50": 60}
{"smiles": "Cc1ccc2oc(-c3ccccc3C(=O)N3CC=C4C(C)(C)C(c5ccc(C(=O)O)cc5)=CC[C@]4(C)C3)nc2c1", "note": "[Example A309]", "EC50": 171}
{"smiles": "COc1cccc2oc(-c3ccccc3C(=O)N3CC=C4C(C)(C)C(c5ccc(C(=O)O)cc5)=CC[C@]4(C)C3)nc12", "note": "[Example A311]", "EC50": 218}
{"smiles": "CC1(C)C(c2ccc(C(=O)O)cc2)=CC[C@]2(C)CN(C(=O)c3ccccc3-c3nc4cc(Br)ccc4o3)CC=C12", "note": "[Example A315]", "EC50": 127}
{"smiles": "COc1ccc2oc(-c3ccccc3C(=O)N3CC=C4C(C)(C)C(c5ccc(C(=O)O)cc5)=CC[C@]4(C)C3)nc2c1", "note": "[Example A320]", "EC50": 183}
{"smiles": "CC1(C)C(c2ccc(C(=O)O)cc2)=CC[C@]2(C)CN(C(=O)c3ccccc3-c3nc4ccccc4o3)CC=C12", "note": "[Example A325]", "EC50": 235}
{"smiles": "Cc1ccc2nc(-c3ccccc3C(=O)N3CC=C4C(C)(C)C(c5ccc(C(=O)O)cc5)=CC[C@]4(C)C3)oc2c1", "note": "[Example A326]", "EC50": 257}
{"smiles": "CC1(C)C(c2ccc(C(=O)O)cc2)=CC[C@]2(C)CN(c3cc(-c4nnn(CCN5CCS(=O)(=O)CC5)n4)cc([N+](=O)[O-])c3)CC=C12", "note": "[Example B1, (S)-4-(2-(3-(2-(2-(1,1-dioxidothiomorpholino)ethyl)-2H-tetrazol-5-yl)-5-nitrophenyl)-5,5,8a-trimethyl-1,2,3,5,8,8a-hexahydroisoquinolin-6-yl)benzoic acid]", "EC50": 24}
{"smiles": "CC1(C)C(c2ccc(C(=O)O)cc2)=CC[C@]2(C)CN(c3cc(-c4nnnn4CCN4CCS(=O)(=O)CC4)cc([N+](=O)[O-])c3)CC=C12", "note": "[Example B2, (S)-4-(2-(3-(1-(2-(1,1-dioxidothiomorpholino)ethyl)-1H-tetrazol-5-yl)-5-nitrophenyl)-5,5,8a-trimethyl-1,2,3,5,8,8a-hexahydroisoquinolin-6-yl)benzoic acid]", "EC50": 760}
